Assay: Displacement of [125I]-ASOR from asialoglycoprotein receptor in mouse parenchymal liver cells after 2 hrs

Structure (SMILES): COc1cc2c(c(OC)c1OC)-c1ccc(OC)c(=O)cc1[C@@H](NC(=O)CCSSCCC(=O)NC(CCCCNC(=O)[C@@H](CCCCNC(=O)CCCCO[C@@H]1O[C@H](CO)[C@H](O)[C@H](O)[C@H]1NC(C)=O)NC(=O)CCCCO[C@@H]1O[C@H](CO)[C@H](O)[C@H](O)[C@H]1NC(C)=O)C(=O)O)CC2 (stereo partly specified)
- Ki: 4.5 nM

— ChEMBL document CHEMBL4145450, “Colchicine prodrugs and codrugs: Chemistry and bioactivities” (Eur J Med Chem, 2018)
